Data as given in patent US10231954B2, “Neurodegenerative therapies” (LYTIX BIOPHARMA AS, priority 2014, dated 2019).
Like-named read-outs stand apart in the source and are kept apart here.

Tests used:
PKA = PKA (Homo sapiens, UniProt P17612); experiment: Kinase profiling PKA; type: biochemical; conditions: read-out: residual kinase activity, PKA
Source text: (§1) Any value less that 25 is considered to be highly significant inhibition.

PKCa = PKCa (Homo sapiens, UniProt P17252); experiment: Kinase profiling PKCa; type: biochemical; conditions: read-out: residual kinase activity, PKCa
Source text: as §1

IRAK4 = target: T1, IRAK4 (Homo sapiens, UniProt Q9NWZ3); experiment: Kinase profiling IRAK4; type: biochemical; conditions: read-out: residual kinase activity, IRAK4
T1 sequence (Q9NWZ3 1-460): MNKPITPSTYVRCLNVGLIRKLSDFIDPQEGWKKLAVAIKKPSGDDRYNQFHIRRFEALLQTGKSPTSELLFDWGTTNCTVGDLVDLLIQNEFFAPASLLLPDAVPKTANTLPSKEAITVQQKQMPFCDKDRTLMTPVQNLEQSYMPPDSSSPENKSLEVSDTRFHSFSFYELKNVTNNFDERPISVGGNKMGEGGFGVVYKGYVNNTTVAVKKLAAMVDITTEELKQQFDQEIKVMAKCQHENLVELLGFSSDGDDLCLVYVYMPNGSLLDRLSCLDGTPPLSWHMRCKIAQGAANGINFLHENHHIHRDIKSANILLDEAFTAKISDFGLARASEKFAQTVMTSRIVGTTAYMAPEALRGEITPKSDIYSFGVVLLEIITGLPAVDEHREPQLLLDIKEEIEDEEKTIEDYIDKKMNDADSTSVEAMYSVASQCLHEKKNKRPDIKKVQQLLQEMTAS
Source text: as §1

TAK1 = target: T2, TAK1 (Homo sapiens, UniProt O43318); experiment: Kinase profiling TAK1; type: biochemical; conditions: read-out: residual kinase activity, TAK1
T2 sequence (O43318 1-303 limits assumed): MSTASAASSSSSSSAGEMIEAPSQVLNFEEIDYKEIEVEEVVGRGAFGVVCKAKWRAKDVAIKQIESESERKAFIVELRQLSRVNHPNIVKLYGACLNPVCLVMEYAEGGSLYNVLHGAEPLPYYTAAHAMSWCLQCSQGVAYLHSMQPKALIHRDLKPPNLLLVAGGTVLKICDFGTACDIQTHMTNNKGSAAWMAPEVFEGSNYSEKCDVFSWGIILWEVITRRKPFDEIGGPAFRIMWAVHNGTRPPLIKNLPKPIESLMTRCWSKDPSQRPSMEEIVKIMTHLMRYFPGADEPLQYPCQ
T2 sequence (Q15750 437-504 partner limits assumed): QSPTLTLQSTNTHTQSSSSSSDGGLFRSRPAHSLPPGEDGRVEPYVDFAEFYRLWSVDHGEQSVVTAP
Source text: as §1

ROCK 2 = ROCK 2 (Homo sapiens, UniProt O75116); experiment: Kinase profiling ROCK 2; type: biochemical; conditions: read-out: residual kinase activity, ROCK 2
Chain of ROCK 2 (O75116 whole entry, species assumed): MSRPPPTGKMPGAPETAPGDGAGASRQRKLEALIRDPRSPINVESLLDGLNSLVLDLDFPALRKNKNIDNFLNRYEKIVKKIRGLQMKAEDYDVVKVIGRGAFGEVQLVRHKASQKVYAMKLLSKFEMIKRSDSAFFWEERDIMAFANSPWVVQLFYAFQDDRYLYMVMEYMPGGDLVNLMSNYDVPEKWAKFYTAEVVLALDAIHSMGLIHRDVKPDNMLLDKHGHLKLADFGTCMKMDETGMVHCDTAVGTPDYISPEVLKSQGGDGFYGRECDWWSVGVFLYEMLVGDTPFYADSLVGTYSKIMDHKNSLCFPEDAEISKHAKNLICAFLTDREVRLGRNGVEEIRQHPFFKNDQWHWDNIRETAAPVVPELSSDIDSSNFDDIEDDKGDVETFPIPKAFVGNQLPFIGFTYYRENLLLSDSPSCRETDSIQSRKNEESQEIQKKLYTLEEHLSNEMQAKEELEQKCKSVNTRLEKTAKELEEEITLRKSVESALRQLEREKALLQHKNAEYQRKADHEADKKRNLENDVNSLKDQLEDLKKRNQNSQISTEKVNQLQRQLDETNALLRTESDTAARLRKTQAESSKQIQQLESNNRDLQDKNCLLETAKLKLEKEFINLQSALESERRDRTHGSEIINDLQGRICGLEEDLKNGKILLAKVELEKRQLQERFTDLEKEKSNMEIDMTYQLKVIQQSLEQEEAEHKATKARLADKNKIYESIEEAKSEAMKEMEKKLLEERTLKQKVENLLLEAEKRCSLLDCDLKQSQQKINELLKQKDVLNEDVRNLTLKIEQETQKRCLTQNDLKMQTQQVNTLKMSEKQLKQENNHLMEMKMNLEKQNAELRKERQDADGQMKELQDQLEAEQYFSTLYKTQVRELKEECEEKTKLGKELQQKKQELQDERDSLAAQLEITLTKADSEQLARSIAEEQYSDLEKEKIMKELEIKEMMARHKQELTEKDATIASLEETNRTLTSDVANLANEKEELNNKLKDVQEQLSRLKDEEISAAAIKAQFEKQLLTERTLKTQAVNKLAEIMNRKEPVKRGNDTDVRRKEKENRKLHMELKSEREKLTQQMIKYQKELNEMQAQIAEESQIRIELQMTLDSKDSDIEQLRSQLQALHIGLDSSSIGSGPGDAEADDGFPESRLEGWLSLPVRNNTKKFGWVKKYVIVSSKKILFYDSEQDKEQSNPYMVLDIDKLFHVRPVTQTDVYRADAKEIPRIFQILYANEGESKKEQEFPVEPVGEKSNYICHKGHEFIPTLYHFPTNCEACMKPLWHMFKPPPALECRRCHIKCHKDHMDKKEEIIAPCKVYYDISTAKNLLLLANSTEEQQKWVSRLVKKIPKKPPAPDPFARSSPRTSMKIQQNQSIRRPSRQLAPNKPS
Source text: as §1

EPH-A2 = EPH-A2 (Homo sapiens, UniProt P29317); experiment: Kinase profiling EPH-A2; type: biochemical; conditions: read-out: residual kinase activity, EPH-A2
Chain of EPH-A2 (P29317 24-976, species assumed): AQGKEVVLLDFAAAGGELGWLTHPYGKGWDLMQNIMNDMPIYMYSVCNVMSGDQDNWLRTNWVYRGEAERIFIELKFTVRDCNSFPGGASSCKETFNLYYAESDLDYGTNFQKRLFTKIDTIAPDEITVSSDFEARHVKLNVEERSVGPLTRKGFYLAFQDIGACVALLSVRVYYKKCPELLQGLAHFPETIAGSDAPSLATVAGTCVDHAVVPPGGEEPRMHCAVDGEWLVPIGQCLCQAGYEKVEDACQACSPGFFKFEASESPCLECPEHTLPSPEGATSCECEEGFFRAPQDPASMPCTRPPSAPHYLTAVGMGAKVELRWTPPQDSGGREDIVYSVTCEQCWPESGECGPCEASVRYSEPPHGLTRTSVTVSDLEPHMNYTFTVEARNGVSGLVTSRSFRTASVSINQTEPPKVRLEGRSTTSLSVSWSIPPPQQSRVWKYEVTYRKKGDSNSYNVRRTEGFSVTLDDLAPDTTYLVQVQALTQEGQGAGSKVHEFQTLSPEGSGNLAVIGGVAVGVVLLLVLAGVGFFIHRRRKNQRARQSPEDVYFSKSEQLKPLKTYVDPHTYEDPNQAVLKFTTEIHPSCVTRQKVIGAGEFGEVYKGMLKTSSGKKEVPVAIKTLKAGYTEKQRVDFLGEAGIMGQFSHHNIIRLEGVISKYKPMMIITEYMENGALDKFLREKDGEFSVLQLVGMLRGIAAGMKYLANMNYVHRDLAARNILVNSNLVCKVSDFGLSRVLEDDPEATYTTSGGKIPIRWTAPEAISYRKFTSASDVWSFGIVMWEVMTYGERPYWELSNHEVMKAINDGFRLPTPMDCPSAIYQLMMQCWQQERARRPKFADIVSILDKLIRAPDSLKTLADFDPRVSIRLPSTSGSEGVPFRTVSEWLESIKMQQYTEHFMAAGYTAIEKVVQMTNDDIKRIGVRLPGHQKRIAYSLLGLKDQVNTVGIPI
Source text: as §1

JAK2 = JAK2 (Homo sapiens, UniProt O60674); experiment: Kinase profiling JAK2; type: biochemical; conditions: read-out: residual kinase activity, JAK2
Chain of JAK2 (O60674 whole entry, species assumed): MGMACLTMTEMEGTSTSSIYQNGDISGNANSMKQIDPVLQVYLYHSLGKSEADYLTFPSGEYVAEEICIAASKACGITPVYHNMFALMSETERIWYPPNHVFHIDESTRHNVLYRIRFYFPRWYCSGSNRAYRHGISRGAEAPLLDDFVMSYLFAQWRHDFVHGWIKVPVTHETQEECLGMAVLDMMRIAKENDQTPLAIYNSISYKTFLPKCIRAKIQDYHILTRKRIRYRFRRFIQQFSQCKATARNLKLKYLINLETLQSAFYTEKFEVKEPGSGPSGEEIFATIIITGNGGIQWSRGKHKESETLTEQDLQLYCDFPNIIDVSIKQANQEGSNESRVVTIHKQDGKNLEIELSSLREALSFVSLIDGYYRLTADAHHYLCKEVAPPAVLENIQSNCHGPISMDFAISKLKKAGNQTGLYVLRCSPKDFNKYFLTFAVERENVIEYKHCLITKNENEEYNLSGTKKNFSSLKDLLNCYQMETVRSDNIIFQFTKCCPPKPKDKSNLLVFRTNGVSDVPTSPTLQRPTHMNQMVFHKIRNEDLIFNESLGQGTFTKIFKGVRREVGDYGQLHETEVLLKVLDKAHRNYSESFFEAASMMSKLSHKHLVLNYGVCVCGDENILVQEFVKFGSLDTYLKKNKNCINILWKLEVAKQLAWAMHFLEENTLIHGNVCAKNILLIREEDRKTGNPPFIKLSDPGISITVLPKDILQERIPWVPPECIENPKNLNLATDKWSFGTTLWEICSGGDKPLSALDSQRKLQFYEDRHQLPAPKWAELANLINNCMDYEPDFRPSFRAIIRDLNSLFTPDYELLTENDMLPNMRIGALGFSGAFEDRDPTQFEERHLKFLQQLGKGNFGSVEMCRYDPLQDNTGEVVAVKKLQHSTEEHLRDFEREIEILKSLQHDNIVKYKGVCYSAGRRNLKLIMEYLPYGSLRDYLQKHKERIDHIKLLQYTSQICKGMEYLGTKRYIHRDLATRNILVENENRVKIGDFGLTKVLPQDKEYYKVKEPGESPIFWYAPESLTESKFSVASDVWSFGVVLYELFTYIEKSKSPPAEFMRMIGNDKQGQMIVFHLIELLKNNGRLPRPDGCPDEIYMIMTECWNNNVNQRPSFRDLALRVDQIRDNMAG
Source text: as §1

p38a MAPK = p38a MAPK (Homo sapiens, UniProt Q16539); experiment: Kinase profiling p38a MAPK; type: biochemical; conditions: read-out: residual kinase activity, p38a MAPK
Chain of p38a MAPK (Q16539 whole entry): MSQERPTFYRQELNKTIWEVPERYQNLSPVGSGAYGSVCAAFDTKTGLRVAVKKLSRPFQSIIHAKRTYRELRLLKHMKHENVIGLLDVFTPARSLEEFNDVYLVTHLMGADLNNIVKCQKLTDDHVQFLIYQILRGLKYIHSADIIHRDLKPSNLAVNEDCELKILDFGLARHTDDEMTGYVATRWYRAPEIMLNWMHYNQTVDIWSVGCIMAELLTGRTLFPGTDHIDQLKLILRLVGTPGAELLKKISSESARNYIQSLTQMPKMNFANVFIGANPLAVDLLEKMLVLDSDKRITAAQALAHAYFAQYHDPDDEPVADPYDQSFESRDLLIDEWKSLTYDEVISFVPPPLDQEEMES
Source text: as §1

RIPK2 = RIPK2 (Homo sapiens, UniProt O43353); experiment: Kinase profiling RIPK2; type: biochemical; conditions: read-out: residual kinase activity, RIPK2
Chain of RIPK2 (O43353 whole entry, species assumed): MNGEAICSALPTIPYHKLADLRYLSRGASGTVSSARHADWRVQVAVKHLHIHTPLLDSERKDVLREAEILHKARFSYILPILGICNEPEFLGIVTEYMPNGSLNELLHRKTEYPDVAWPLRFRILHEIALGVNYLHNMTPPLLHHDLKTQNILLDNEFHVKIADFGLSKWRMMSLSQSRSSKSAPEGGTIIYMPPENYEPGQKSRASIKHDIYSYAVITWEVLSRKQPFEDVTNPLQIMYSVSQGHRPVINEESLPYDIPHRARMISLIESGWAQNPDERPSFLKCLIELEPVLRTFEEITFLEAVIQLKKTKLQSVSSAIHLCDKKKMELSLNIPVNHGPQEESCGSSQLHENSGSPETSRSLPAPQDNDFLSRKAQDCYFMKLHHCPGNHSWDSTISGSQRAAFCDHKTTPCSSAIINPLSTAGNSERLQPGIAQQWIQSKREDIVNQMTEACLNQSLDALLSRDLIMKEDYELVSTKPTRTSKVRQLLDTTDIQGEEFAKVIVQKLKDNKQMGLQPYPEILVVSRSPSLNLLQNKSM
Source text: as §1

PKD1 = target: T3, PKD1 (Homo sapiens, UniProt Q15139); experiment: Kinase profiling PKD1; type: biochemical; conditions: read-out: residual kinase activity, PKD1
T3 sequence (Q15139 1-912): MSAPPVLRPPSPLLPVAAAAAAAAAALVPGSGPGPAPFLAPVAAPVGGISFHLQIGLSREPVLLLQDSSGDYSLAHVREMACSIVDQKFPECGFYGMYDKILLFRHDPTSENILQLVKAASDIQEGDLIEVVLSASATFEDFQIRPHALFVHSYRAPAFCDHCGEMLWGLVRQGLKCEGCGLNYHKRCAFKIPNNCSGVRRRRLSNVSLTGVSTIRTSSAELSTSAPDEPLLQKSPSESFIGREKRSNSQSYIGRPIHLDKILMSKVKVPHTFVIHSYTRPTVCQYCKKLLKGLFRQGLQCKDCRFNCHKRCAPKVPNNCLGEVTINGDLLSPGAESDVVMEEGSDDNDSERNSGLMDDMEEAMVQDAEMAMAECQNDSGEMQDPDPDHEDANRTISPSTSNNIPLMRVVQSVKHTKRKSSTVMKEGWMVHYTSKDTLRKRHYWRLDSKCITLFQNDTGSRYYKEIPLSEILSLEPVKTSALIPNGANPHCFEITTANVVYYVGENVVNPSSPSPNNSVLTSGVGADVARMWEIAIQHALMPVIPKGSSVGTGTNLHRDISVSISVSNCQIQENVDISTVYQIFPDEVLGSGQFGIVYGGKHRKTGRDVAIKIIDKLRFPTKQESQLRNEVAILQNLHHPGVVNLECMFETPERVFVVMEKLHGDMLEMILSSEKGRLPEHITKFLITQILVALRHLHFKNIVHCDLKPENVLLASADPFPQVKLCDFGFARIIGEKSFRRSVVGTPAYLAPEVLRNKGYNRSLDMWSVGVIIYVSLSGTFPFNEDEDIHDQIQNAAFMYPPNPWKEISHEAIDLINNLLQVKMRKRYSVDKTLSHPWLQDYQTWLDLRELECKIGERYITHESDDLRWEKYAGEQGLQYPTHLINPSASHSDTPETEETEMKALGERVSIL
Source text: as §1

p38g MAPK = target: T4, p38g MAPK (Homo sapiens, UniProt P53778); experiment: Kinase profiling p38g MAPK; type: biochemical; conditions: read-out: residual kinase activity, p38g MAPK
T4 sequence (P53778 1-367): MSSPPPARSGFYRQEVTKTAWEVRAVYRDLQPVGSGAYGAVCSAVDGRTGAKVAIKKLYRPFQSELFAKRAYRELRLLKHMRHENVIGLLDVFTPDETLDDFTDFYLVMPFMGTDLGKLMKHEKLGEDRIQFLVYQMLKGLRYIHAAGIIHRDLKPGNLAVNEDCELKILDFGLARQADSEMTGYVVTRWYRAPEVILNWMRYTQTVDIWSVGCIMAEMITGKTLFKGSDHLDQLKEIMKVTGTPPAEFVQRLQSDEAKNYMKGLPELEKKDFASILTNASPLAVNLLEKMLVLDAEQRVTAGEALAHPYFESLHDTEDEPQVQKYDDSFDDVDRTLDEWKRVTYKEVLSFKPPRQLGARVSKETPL
Source text: as §1

PIM1 = PIM1 (Homo sapiens, UniProt P11309); experiment: Kinase profiling PIM1; type: biochemical; conditions: read-out: residual kinase activity, PIM1
Chain of PIM1 (P11309 whole entry, species assumed): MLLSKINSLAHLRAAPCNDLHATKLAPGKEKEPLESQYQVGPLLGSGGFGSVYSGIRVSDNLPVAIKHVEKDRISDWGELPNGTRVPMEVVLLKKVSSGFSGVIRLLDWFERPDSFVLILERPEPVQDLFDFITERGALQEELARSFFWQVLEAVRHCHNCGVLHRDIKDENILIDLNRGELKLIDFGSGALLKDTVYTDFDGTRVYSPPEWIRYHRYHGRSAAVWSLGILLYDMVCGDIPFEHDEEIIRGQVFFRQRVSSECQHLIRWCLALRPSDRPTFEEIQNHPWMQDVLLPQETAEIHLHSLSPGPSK
Source text: as §1

AMPK (hum) = experiment: Kinase profiling AMPK (hum); type: biochemical, human
Source text: as §1

[1] = 100 micromolar inhibitor concentration, 100 is no change
[2] = 100 micromolar inhibitor, 100 = no change

| SMILES | remaining activity at 100 µM (PKA; [1]) [%] | remaining activity at 100 µM (PKCa; [1]) [%] | remaining activity at 100 µM (IRAK4; [1]) [%] | remaining activity at 100 µM (TAK1; [1]) [%] | remaining activity at 100 µM (ROCK 2; [1]) [%] | remaining activity at 100 µM (EPH-A2; [1]) [%] | remaining activity at 100 µM (JAK2; [1]) [%] | remaining activity at 100 µM (p38a MAPK; [1]) [%] | remaining activity at 100 µM (RIPK2; [1]) [%] | remaining activity at 100 µM (PKD1; [1]) [%] | remaining activity at 100 µM (p38g MAPK; [1]) [%] | remaining activity at 100 µM (PIM1; [1]) [%] | residual kinase activity, AMPK (hum) (AMPK (hum); [1]) | other results |
| --- | --- | --- | --- | --- | --- | --- | --- | --- | --- | --- | --- | --- | --- | --- |
| CC(=O)Nc1nc2ccc(C(F)(F)F)cc2s1 [Compound 01-90] | 87 | 101 | 12 | 83 | 80 | 67 | 73 | 106 | 23 | 119 | 101 | 71 | 74 |  |
| CC(=O)Nc1nc2ccc(C#N)cc2s1 [Compound 01-94] | 93 | 93 | 10 | 17 | 69 | 73 | 33 | 102 | 17 | 97 | 82 | 26 | 40 |  |
| CC(=O)Nc1cccc(NC(=O)c2nc3ccc(O)cc3s2)c1 [Compound 03-07, N-(3-acetamidophenyl)-6-hydroxybenzo[d]thiazole-2-carboxamide] |  |  |  |  |  |  |  |  |  |  |  |  |  | remaining activity at 100 µM (PKA; [2]): 91%; remaining activity at 100 µM (PKCa; [2]): 81%; remaining activity at 100 µM (IRAK4; [2]): 74%; remaining activity at 100 µM (TAK1; [2]): 53%; remaining activity at 100 µM (ROCK 2; [2]): 27%; remaining activity at 100 µM (EPH-A2; [2]): 88%; remaining activity at 100 µM (JAK2; [2]): 56%; remaining activity at 100 µM (p38a MAPK; [2]): 93%; remaining activity at 100 µM (RIPK2; [2]): 18%; remaining activity at 100 µM (PKD1; [2]): 61%; remaining activity at 100 µM (p38g MAPK; [2]): 93%; remaining activity at 100 µM (PIM1; [2]): 25%; residual kinase activity, AMPK (hum) (AMPK (hum); [2]): 34 |
